23 compounds from patent publication US20250320206A1, “STAT6 DEGRADERS” (Gilead Sciences, Inc., priority 2024, published 2025) can be followed below.

One assay concerns the target T1, STAT6 (Homo sapiens, UniProt P42226).
T1 construct: These cells express endogenous STAT6; host or cells: HeLa LgBiT clone 4.14
T1 sequence (P42226 1-847): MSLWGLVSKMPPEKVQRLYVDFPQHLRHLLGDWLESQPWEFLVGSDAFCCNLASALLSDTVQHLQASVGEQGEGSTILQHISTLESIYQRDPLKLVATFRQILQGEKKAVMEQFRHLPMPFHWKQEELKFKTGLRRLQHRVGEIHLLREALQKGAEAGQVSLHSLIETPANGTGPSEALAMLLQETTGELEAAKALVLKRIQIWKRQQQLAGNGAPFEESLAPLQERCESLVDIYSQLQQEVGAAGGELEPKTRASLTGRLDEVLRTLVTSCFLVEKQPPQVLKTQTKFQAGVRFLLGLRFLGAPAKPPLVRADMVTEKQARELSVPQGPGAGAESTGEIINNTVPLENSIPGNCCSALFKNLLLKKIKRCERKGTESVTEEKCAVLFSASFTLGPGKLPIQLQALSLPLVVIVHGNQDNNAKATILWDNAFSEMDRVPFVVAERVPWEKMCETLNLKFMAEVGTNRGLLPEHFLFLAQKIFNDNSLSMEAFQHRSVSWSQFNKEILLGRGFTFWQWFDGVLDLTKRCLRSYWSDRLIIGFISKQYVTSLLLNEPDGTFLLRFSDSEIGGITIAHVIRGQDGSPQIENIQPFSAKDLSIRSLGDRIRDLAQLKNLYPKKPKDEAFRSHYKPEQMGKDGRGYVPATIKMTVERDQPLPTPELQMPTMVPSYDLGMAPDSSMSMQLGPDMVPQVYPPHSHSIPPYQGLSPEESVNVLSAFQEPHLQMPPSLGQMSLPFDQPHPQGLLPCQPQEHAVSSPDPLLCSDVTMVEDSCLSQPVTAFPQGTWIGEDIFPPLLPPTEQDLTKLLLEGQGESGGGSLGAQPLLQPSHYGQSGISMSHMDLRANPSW
As to the kind of experiment: Stat6 Degrader Assay (HiBiT based, HeLa LgBiT clone 4.14). Type of assay: cell-based. Particulars: HeLa LgBiT clone 4.14 HiBiT-STAT6, 4-24 h incubation; values given for compounds with >80% Emax; geometric mean; read-out: STAT6 degradation DC50. Summed up: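 Luminescence from HiBiT-STAT6 complementing stably expressed LgBiT in HeLa clone 4.14 reports remaining STAT6 protein. Cells (5000/well) exposed to compound for 4-24 h at 37° C; read 0.5 h after Nano-Glo addition. 100% degradation window set with 50 μM terfenadine; percent degradation plotted against concentration.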
(In general: The HiBiT peptide binds its large partner to form an active luciferase.)

For assay [1], the system named is Eotaxin-3 release in human whole blood stimulated with IL-4. As to the kind of experiment: Human Whole Blood Eotaxin-3 Assay (IL-4 stimulated eotaxin-3 release). Particulars: IL-4 stimulation, 48 h, values given for compounds with >80% Emax, geometric mean. The class given is cell-based. Summed up:
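Eotaxin-3 (CCL26) release measured by MSD kit in plasma supernatant after 48 h IL-4 stimulation ([…]) of human whole blood. Compounds added in triplicate 4-fold dilutions 2 h before stimulation; 0.5% DMSO final, 37° C, 5% CO2.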

Molecules are shown by their SMILES.

As usually defined, the DC50 is the concentration giving 50% degradation. The term EC50 denotes the concentration needed to bring the measured effect to its halfway point. Consider `CNc1cc(=O)n(-c2ccnc3c2cc([C@H](C)N2CC=C(c4c(C)cc(C(=O)N5CCC(CN6CCN(Cc7ccc8c(c7)n(C7CC7)c(=O)n8[C@H]7CCC(=O)NC7=O)C[C@@H]6C)CC5)cc4F)CC2)n3C)cc1F` (single isomer, unassigned) [Example 3u119], for which the DC50 on STAT6 was found to be 2.1 nM. This compound also returned an EC50 in assay [1] of 2.2 nM.
As for `CNc1cc(=O)n(-c2ccnc3c2cc([C@H](C)N2CC=C(c4c(C)cc(C(=O)N5CCC(CN6CCN(Cc7ccc8c(c7)n(C7CC7)c(=O)n8[C@@H]7CCC(=O)NC7=O)C[C@@H]6C)CC5)cc4F)CC2)n3C)cc1F` (single isomer, unassigned) [Example 3u120], the DC50 on STAT6 was 1 nM. In addition, the EC50 in assay [1] is 3.7 nM.
Consider `CNc1cc(=O)n(-c2ccnc3c2cc([C@H](C)N2CC=C(c4c(F)cc(C(=O)N5CCC(CN6CCN(Cc7ccc8c(c7)n(C7CC7)c(=O)n8[C@@H]7CCC(=O)NC7=O)C[C@@H]6C)CC5)cc4F)CC2)n3C)cc1F` (single isomer, unassigned) [Example 3u130], for which the DC50 on STAT6 came out at 1.3 nM. The compound further registered an EC50 in assay [1] of 1.8 nM.
With `CNc1cc(=O)n(-c2ccnc3c2cc([C@H](C)N2CC=C(c4c(C)cc(C(=O)N5CCC(CN6CCN(Cc7cc8c(cc7F)N([C@@H]7CCC(=O)NC7=O)C(=O)C87CC7)CC6)CC5)cc4F)CC2)n3C)cc1F` (single isomer, unassigned) [Example 3u153], the DC50 on STAT6 came out at 4.1 nM. For the same compound, it took 8.7 nM to reach a half-maximal effect in assay [1] (EC50).
Take `CNc1cc(=O)n(-c2ccnc3c2cc([C@H](C)N2CC=C(c4c(C)cc(C(=O)N5CCC(CN6CCN(Cc7cc8c(cc7F)N([C@H]7CCC(=O)NC7=O)C(=O)C87CC7)CC6)CC5)cc4F)CC2)n3C)cc1F` (single isomer, unassigned) [Example 3u154]: the DC50 at STAT6 worked out at 6.4 nM. The same compound had an EC50 in assay [1] of 10.1 nM.
On to `CNc1ccn(-c2ccnc3c2cc([C@H](C)N2CC=C(c4c(C)cc(C(=O)N5CCC(CN6CCN(Cc7ccc8c(c7)n(C)c(=O)n8[C@@H]7CCC(=O)NC7=O)CC6)CC5)cc4F)CC2)n3C)c(=O)c1` (single isomer, unassigned) [Example 3u157], for which the DC50 on STAT6 was found to be 0.3 nM. Further, the EC50 in assay [1] stood at 0.4 nM.
`CNc1ccn(-c2ccnc3c2cc(CN2CCC(c4c(C)cc(C(=O)N5CCC(CN6CCN(Cc7ccc8c(c7)n(C)c(=O)n8[C@@H]7CCC(=O)NC7=O)CC6)CC5)cc4F)CC2)n3C)c(=O)c1` (single isomer, unassigned) [Example 3u159]: the DC50 on STAT6 was 12.8 nM. Moreover, the EC50 in assay [1] is 52.6 nM.
As for `CNc1ccn(-c2ccnc3c2cc(CN2CCC(c4c(C)cc(C(=O)N5CCC(CN6CCN(Cc7ccc8c(c7)n(C)c(=O)n8[C@H]7CCC(=O)NC7=O)CC6)CC5)cc4F)CC2)n3C)c(=O)c1` (single isomer, unassigned) [Example 3u160], the DC50 at STAT6 is 10.9 nM. In addition, in assay [1], it took 27.5 nM to reach a half-maximal effect (EC50).
`CNc1ccn(-c2ccnc3c2cc(CN2CC=C(c4c(C)cc(C(=O)N5CCC(CN6CCN(Cc7ccc8c(c7)n(C)c(=O)n8[C@H]7CCC(=O)NC7=O)CC6)CC5)cc4F)CC2)n3C)c(=O)c1` (single isomer, unassigned) [Example 3u161]: on STAT6, the DC50 stood at 3.1 nM. This compound also registered an EC50 in assay [1] of 1.7 nM.
Consider `CNc1ccn(-c2ccnc3c2cc(CN2CC=C(c4c(C)cc(C(=O)N5CCC(CN6CCN(Cc7ccc8c(c7)n(C)c(=O)n8[C@@H]7CCC(=O)NC7=O)CC6)CC5)cc4F)CC2)n3C)c(=O)c1` (single isomer, unassigned) [Example 3u162], for which the DC50 at STAT6 was 3.3 nM. This compound also came in with an EC50 in assay [1] of 2.3 nM.
With `Cc1cc(C(=O)N2CCC(CN3CCN(Cc4ccc5c(c4)C(C)(C)C(=O)N5[C@@H]4CCC(=O)NC4=O)C[C@@H]3C)CC2)cc(F)c1C1=CCN([C@@H](C)c2cc3c(-n4cc(F)c(N)cc4=O)ccnc3n2C)CC1` (single isomer, unassigned) [Example 3u171], on STAT6, the DC50 is 3.5 nM. In addition, the EC50 in assay [1] came out at 15.4 nM.
On to `CNc1cc(=O)n(-c2ccnc3c2cc([C@H](C)N2CC=C(c4c(C)cc(C(=O)N5CCC(CN6CCN(Cc7ccc8c(c7)C(C)(C)C(=O)N8[C@H]7CCC(=O)NC7=O)C[C@@H]6C)CC5)cc4F)CC2)n3C)cc1F` (single isomer, unassigned) [Example 3u173], for which the DC50 at STAT6 was found to be 3.1 nM. In addition, the EC50 in assay [1] was 7.8 nM.
As to `CNc1cc(=O)n(-c2ccnc3c2cc([C@H](C)N2CC=C(c4c(C)cc(C(=O)N5CCC(CN6CCN(Cc7ccc8c(c7)C(C)(C)C(=O)N8[C@@H]7CCC(=O)NC7=O)C[C@@H]6C)CC5)cc4F)CC2)n3C)cc1F` (single isomer, unassigned) [Example 3u174], the DC50 on STAT6 stood at 3.8 nM. Further, in assay [1], the EC50 was 11 nM.
As for `CNc1ccn(-c2ccnc3c2cc([C@H](C)N2CC=C(c4c(C)cc(C(=O)N5CCC(CN6CCN(Cc7ccc8c(c7)C(C)(C)C(=O)N8[C@H]7CCC(=O)NC7=O)C[C@@H]6C)CC5)cc4F)CC2)n3C)c(=O)c1` (single isomer, unassigned) [Example 3u176], the DC50 on STAT6 amounted to 2.3 nM. In assay [1], this compound displayed an EC50 of 9.8 nM.
For `CNc1ccn(-c2ccnc3c2cc([C@H](C)N2CC=C(c4c(C)cc(C(=O)N5CCC(CN6CCN(Cc7ccc8c(c7)C(C)(C)C(=O)N8[C@@H]7CCC(=O)NC7=O)C[C@@H]6C)CC5)cc4F)CC2)n3C)c(=O)c1` (single isomer, unassigned) [Example 3u177], the DC50 at STAT6 worked out at 1.8 nM. Also, a half-maximal effect in assay [1] (EC50) was put at 3.1 nM.
As to `CNc1ccn(-c2ccnc3c2cc(CN2CC=C(c4c(C)cc(C(=O)N5CCC(CN6CCN(Cc7ccc8c(c7)C(C)(C)C(=O)N8[C@H]7CCC(=O)NC7=O)C[C@@H]6C)CC5)cc4F)CC2)n3C)c(=O)c1` (single isomer, unassigned) [Example 3u179], at STAT6, the DC50 was 6.1 nM. Besides, the EC50 in assay [1] was 12.4 nM.
In the case of `CNc1ccn(-c2ccnc3c2cc(CN2CC=C(c4c(C)cc(C(=O)N5CCC(CN6CCN(Cc7ccc8c(c7)C(C)(C)C(=O)N8[C@@H]7CCC(=O)NC7=O)C[C@@H]6C)CC5)cc4F)CC2)n3C)c(=O)c1` (single isomer, unassigned) [Example 3u180], on STAT6, the DC50 turned out to be 8.8 nM. In assay [1], this compound showed an EC50 of 17.3 nM.
On the same counts, the results for `CNc1ccn(-c2ccnc3c2cc([C@H](C)N2CC=C(c4c(C)cc(C(=O)N5CCC(CN6CCN(Cc7cc8c(cc7F)N([C@@H]7CCC(=O)NC7=O)C(=O)C8(C)C)C[C@@H]6C)CC5)cc4F)CC2)n3C)c(=O)c1` (single isomer, unassigned) [Example 3u183] are 5.9 nM and 8 nM.
On the same counts, the results for `C[C@H]1CN(Cc2ccc3c(c2)C(C)(C)C(=O)N3[C@H]2CCC(=O)NC2=O)CCN1CC1CCN(C(=O)c2ccc(C3CCN([C@@H](C)c4cc5c(-n6ccc7c(c6=O)CCN7)ccnc5n4C)CC3)cc2)CC1` (single isomer, unassigned) [Example 3u185] are 2.8 nM and 2.3 nM.
Take `C[C@H]1CN(Cc2ccc3c(c2)C(C)(C)C(=O)N3[C@@H]2CCC(=O)NC2=O)CCN1CC1CCN(C(=O)c2ccc(C3CCN([C@@H](C)c4cc5c(-n6ccc7c(c6=O)CCN7)ccnc5n4C)CC3)cc2)CC1` (single isomer, unassigned) [Example 3u186]: the DC50 on STAT6 was determined as 3.5 nM. For the same compound, in assay [1], the EC50 was 4.6 nM.
On the same counts, the results for `CNc1ccn(-c2ccnc3c2cc([C@H](C)N2CCC(c4ccc(C(=O)N5CCC(CN6CCN(Cc7ccc8c(c7)C(C)(C)C(=O)N8[C@@H]7CCC(=O)NC7=O)C[C@@H]6C)CC5)cc4)CC2)n3C)c(=O)c1` (single isomer, unassigned) [Example 3u189] are 4.7 nM and 7.7 nM.
The like results for `CNc1ccn(-c2ccnc3c2cc([C@H](C)N2CC=C(c4c(C)cc(C(=O)N5CCC(CN6CCN(Cc7ccc8c(c7)C7(CC7)C(=O)N8[C@H]7CCC(=O)NC7=O)C[C@@H]6C)CC5)cc4F)CC2)n3C)c(=O)c1` (single isomer, unassigned) [Example 3u191] were, in that order, 0.4 nM and 0.5 nM.
As for `CNc1ccn(-c2ccnc3c2cc([C@H](C)N2CC=C(c4c(C)cc(C(=O)N5CCC(CN6CCN(Cc7ccc8c(c7)C7(CC7)C(=O)N8[C@@H]7CCC(=O)NC7=O)C[C@@H]6C)CC5)cc4F)CC2)n3C)c(=O)c1` (single isomer, unassigned) [Example 3u192], the DC50 at STAT6 was found to be 0.6 nM. Besides, a half-maximal effect in assay [1] (EC50) was put at 0.9 nM.
